Series [1] can be described thus: Plasma stability study, human plasma. Type of series: in vitro ADME. The conditions noted are these: Human plasma, 1 μM, 37° C. The essentials:
(§1)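 Compounds (1 μM, from 0.3 mM DMSO stock) incubated at 37° C in K2 EDTA plasma, quenched at time points with acetonitrile/methanol/formic acid plus internal standard, and analysed by LC/MS/MS. Disappearance measured relative to 0-min control; t½ derived from elimination rate constant of semi-log % remaining versus time regression.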

Series [2] can be described thus: Plasma stability study, rat plasma. Type of series: in vitro ADME. The conditions noted are these: Rat plasma, 1 μM, 37° C. The essentials: as §1
A short description of series [3]: Metabolic stability in simulated intestinal fluid (SIF), pH 6.8, with or without pancreatin. Type of series: in vitro ADME. The conditions noted are these: 5 μM, 37° C. The essentials: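 Compounds at 5 μM incubated at 37 °C in freshly made SIF pH 6.8 (NaOH/NaH2PO4/NaCl), with or without 1% pancreatin. Remaining parent measured by LC/MS/MS against 0-min control; t½ derived from elimination rate constant (−slope) of semi-log % remaining vs time.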

The next series concerns Caco-2 cells. Kind of series: Caco-2 permeability study with or without P-gp inhibitor GF120918. The conditions noted are these: for Abs. Quotient: (Papp A-B with inhibitor − without inhibitor)/Papp A-B with inhibitor; for Caco-2 Cells Permeability Recovery Rate: 1 hr, pH 7.4. In general terms: Caco-2 cells form a polarised layer with tight junctions and transporters.
[4] abbreviates: +GF120918 (10 μM), 10 μM compound.

Structures are written as SMILES.

Take `CCCCCC(=O)NC(Cc1ccc(OC(=O)NCCN(C)C)cc1)C(=O)NC(C(=O)NCCCCCC(N)=O)C(C)CC` (centres unmarked) [Compound A21]: in series [1], the “Plasma Stability Half-Life” value was found to be 1.22 h, the “Plasma Stability (% Parent Remaining) 0 min” value is listed as 100%, the “Plasma Stability (% Parent Remaining) 60 min” value was found to be 59% and the “Plasma Stability (% Parent Remaining) 120 min” value worked out at 33%. In addition, in series [1], the “Plasma Stability (% Parent Remaining) 240 min” value was 11%. In addition, in series [2], the “Plasma Stability Half-Life” value was 1.16 h, the “Plasma Stability (% Parent Remaining) 0 min” value is reported as 100%, the “Plasma Stability (% Parent Remaining) 60 min” value worked out at 61% and the “Plasma Stability (% Parent Remaining) 120 min” value worked out at 34%. For the same molecule, in series [2], the “Plasma Stability (% Parent Remaining) 240 min” value is 9%. For the same molecule, in series [3] (+Pancreatin (1%)), the “SIF Stability (pH 6.8) Half-Life (min)” value is 3006.4 min, the “SIF Stability (pH 6.8) 0 min” value is given as 100%, the “SIF Stability (pH 6.8) 60 min” value is reported as 95% and the “SIF Stability (pH 6.8) 120 min” value is 97%. In series [3] (+Pancreatin (1%)), the “SIF Stability (pH 6.8) 240 min” value is on record as 93%. Moreover, in the series with Caco-2 cells, the “Abs. Quotient” value came to 0.50. Besides, the “Caco-2 Cells Permeability Recovery Rate” value in the series on Caco-2 cells (setting [4]) was 84%. Besides, the “Caco-2 Cells Permeability Recovery Rate” value with Caco-2 cells (−GF120918, 10 μM compound) was determined as 84%.

Consider `CCCCCC(=O)NC(Cc1ccc(OC(=O)N2CCN(C)CC2)cc1)C(=O)NC(C(=O)NCCCCCC(N)=O)C(C)CC` (centres unmarked) [Compound A20], for which, in series [1], the “Plasma Stability Half-Life” value came to 49.295 h, the “Plasma Stability (% Parent Remaining) 0 min” value is reported as 100%, the “Plasma Stability (% Parent Remaining) 60 min” value turned out to be 83% and the “Plasma Stability (% Parent Remaining) 120 min” value is given as 87%. In addition, in series [1], the “Plasma Stability (% Parent Remaining) 240 min” value is recorded as 90%. For the same molecule, in series [2], the “Plasma Stability Half-Life” value was 2.617 h, the “Plasma Stability (% Parent Remaining) 0 min” value was determined as 100%, the “Plasma Stability (% Parent Remaining) 60 min” value was determined as 73% and the “Plasma Stability (% Parent Remaining) 120 min” value is on record as 56%. For the same molecule, in series [2], the “Plasma Stability (% Parent Remaining) 240 min” value is listed as 34%. Moreover, in series [3] (+Pancreatin (1%)), the “SIF Stability (pH 6.8) Half-Life (min)” value is reported as 86.6 min, the “SIF Stability (pH 6.8) 0 min” value is reported as 100%, the “SIF Stability (pH 6.8) 60 min” value is 62% and the “SIF Stability (pH 6.8) 120 min” value is listed as 54%. Further, the “SIF Stability (pH 6.8) 240 min” value in series [3] (+Pancreatin (1%)) is on record as 61%. In series [3] (−Pancreatin), the “SIF Stability (pH 6.8) Half-Life (min)” value is reported as 95.4 min, the “SIF Stability (pH 6.8) 0 min” value is 100%, the “SIF Stability (pH 6.8) 60 min” value is reported as 65% and the “SIF Stability (pH 6.8) 120 min” value is recorded as 57%. For the same molecule, in series [3] (−Pancreatin), the “SIF Stability (pH 6.8) 240 min” value is recorded as 51%. Further, in the series on Caco-2 cells, the “Abs. Quotient” value was 0.88. In addition, the “Caco-2 Cells Permeability Recovery Rate” value in the series with Caco-2 cells (setting [4]) is reported as 90%. In the series on Caco-2 cells (−GF120918, 10 μM compound), the “Caco-2 Cells Permeability Recovery Rate” value is 71%.

Values taken from patent publication US12421276B2 (priority 2016, dated 2025).
